IC50 data for 31 compounds are collected here from patent US20120101095A1, “ALKOXY-THIENOPYRIMIDINES AS TGF-BETA RECEPTOR KINASE MODULATORS” (priority 2009, published 2012).

The target of the assay is T1, GST-ALK5 (Homo sapiens, UniProt P36897).
T1 sequence (P36897 34-503): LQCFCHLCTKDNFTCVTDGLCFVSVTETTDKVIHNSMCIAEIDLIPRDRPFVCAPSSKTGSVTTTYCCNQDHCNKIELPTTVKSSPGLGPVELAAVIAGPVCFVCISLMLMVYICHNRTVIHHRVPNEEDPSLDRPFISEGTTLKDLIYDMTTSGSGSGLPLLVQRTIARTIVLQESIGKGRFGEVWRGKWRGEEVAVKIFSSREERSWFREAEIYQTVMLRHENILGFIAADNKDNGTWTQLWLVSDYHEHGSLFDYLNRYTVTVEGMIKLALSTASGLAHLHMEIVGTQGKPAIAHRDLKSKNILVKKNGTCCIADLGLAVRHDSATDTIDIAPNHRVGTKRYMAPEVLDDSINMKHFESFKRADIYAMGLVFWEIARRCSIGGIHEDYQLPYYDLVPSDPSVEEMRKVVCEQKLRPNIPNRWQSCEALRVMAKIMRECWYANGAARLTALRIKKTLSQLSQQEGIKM
Nature of the assay: In-vitro (enzyme) kinase assay, 384-well flashplate, GST-SMAD2 substrate. Format: biochemical. Conditions: 31.2 nM GST-ALK5, 439 nM GST-SMAD2, 3 mM ATP, 30° C., 45 min. As for the experimental part:
In-Vitro (Enzyme) Assay for Determination of the Efficacy of Inhibitors of the Inhibition of TGF-Beta-Mediated Effects
The kinase assay was carried out as 384-well flashplate assay. 31.2 nM of GST-ALK5, 439 nM of GST-SMAD2 and 3 mM of ATP (with 0.3 μCi of ^33P-ATP/well) were incubated in a total volume of 35 μl (20 mM of HEPES, 10 mM of MgCl2, 5 mM of MnCl2, 1 mM of DTT, 0.1% of BSA, pH 7.4) without or with test substance (5-10 concentrations) at 30° C. for 45 min. The reaction was stopped using 25 μl of 200 mM EDTA solution, filtered with suction at room temperature after 30 min, and the wells were washed with 3 times 100 μl of 0.9% NaCl solution. Radioactivity was measured in the TopCount. The IC50 values were calculated using RS1 (Table 1). Above and below, all temperatures were indicated in ° C.
As for `NC(=O)c1sc2nc(OCCn3ccnc3)nc(-c3cccc(Cl)c3)c2c1N` [No 43, 5-Amino-4-(3-chloro-phenyl)-2-(2-imidazol-1-yl-ethoxy)-thieno[2,3-d]pyrimidine-6-carboxylic acid amide], the IC50 was in the range of 100 to 500 nM. `Cc1ccc(-c2nc(OCCn3cccn3)nc3sc(C(N)=O)c(N)c23)o1` [No 29, 5-Amino-4-(5-methyl-furan-2-yl)-2-(2-pyrazol-1-yl-ethoxy)-thieno[2,3-d]pyrimidine-6-carboxylic acid amide] returned an IC50 of 100 to 500 nM. In turn, `NC(=O)c1sc2nc(OCCO)nc(-c3cccc(Cl)c3)c2c1N` [No 13, 5-Amino-4-(3-chloro-phenyl)-2-(2-hydroxy-ethoxy)-thieno[2,3-d]pyrimidine-6-carboxylic acid amide] gave an IC50 of 100 to 500 nM.

In the case of `NC(=O)c1sc2nc(OC[C@H]3C[C@@H]3CO)nc(-c3cccc(Cl)c3)c2c1N` [No 60, 5-Amino-4-(3-chloro-phenyl)-2-((1S,2S)-2-hydroxymethyl-cyclopropylmethoxy)-thieno[2,3-d]pyrimidine-6-carboxylic acid amide], the IC50 was under 100 nM. The same measure for `COc1nc(-c2ccc(C)s2)c2c(N)c(C(N)=O)sc2n1` [No 23, 5-Amino-2-methoxy-4-(5-methyl-thiophen-2-yl)-thieno[2,3-d]pyrimidine-6-carboxylic acid amide]: 100 to 500 nM; for `COCCOc1nc(-c2cccc(Cl)c2)c2c(N)c(C(N)=O)sc2n1` [No 1, 5-Amino-4-(3-chloro-phenyl)-2-(2-methoxy-ethoxy)-thieno[2,3-d]pyrimidine-6-carboxylic acid amide]: 100 to 500 nM; for `Cc1cccc(-c2nc(OCCCn3cccn3)nc3sc(C(N)=O)c(N)c23)n1` [No 49, 5-Amino-4-(6-methyl-pyridin-2-yl)-2-(3-pyrazol-1-yl-propoxy)-thieno[2,3-d]pyrimidine-6-carboxylic acid amide]: under 100 nM.

`Cc1cccc(-c2nc(OCc3cnn(C)c3)nc3sc(C(N)=O)c(N)c23)n1` [No 33, 5-Amino-2-(1-methyl-1H-pyrazol-4-ylmethoxy)-4-(6-methyl-pyridin-2-yl)-thieno[2,3-d]pyrimidine-6-carboxylic acid amide] registered an IC50 of under 100 nM. As for `NC(=O)c1sc2nc(OCC3CCCO3)nc(-c3cccc(Cl)c3)c2c1N` (stereo not shown) [No 73, 5-Amino-4-(3-chloro-phenyl)-2-(tetrahydro-furan-2-ylmethoxy)-thieno[2,3-d]pyrimidine-6-carboxylic acid amide], the figure is 100 to 500 nM; as for `Cc1ccc(-c2nc(OCCCO)nc3sc(C(N)=O)c(N)c23)o1` [No 22, 5-Amino-2-(3-hydroxy-propoxy)-4-(5-methyl-furan-2-yl)-thieno[2,3-d]pyrimidine-6-carboxylic acid amide], 100 to 500 nM. The same measure for `NC(=O)c1sc2nc(OC[C@@H]3CCCN3)nc(-c3cccc(Cl)c3)c2c1N` [No 76, 5-Amino-4-(3-chloro-phenyl)-2-((S)-1-pyrrolidin-2-ylmethoxy)-thieno[2,3-d]pyrimidine-6-carboxylic acid amide]: over 1000 nM. As for `NC(=O)CCCOc1nc(-c2cccc(Cl)c2)c2c(N)c(C(N)=O)sc2n1` [No 69, 5-Amino-2-(3-carbamoyl-propoxy)-4-(3-chloro-phenyl)-thieno[2,3-d]pyrimidine-6-carboxylic acid amide], the figure is 100 to 500 nM. With `NC(=O)c1sc2nc(OC[C@H]3CCC(=O)N3)nc(-c3cccc(Cl)c3)c2c1N` [No 77, 5-Amino-4-(3-chloro-phenyl)-2-((R)-5-oxo-pyrrolidin-2-ylmethoxy)-thieno[2,3-d]pyrimidine-6-carboxylic acid amide], the IC50 fell in the range of 100 to 500 nM. With `Cc1cccc(-c2nc(OCc3ccn(C)n3)nc3sc(C(N)=O)c(N)c23)n1` [No 28, 5-Amino-2-(1-methyl-1H-pyrazol-3-ylmethoxy)-4-(6-methyl-pyridin-2-yl)-thieno[2,3-d]pyrimidine-6-carboxylic acid amide], the IC50 was under 100 nM.

In turn, `NC(=O)c1sc2nc(OC[C@H](O)CO)nc(-c3cccc(Cl)c3)c2c1N` [No 50, 5-Amino-4-(3-chloro-phenyl)-2-((R)-2,3-dihydroxy-propoxy)-thieno[2,3-d]pyrimidine-6-carboxylic acid amide] gave an IC50 of 100 to 500 nM.

As to `NC(=O)c1sc2nc(OC[C@@H]3CCC(=O)N3)nc(-c3cccc(Cl)c3)c2c1N` [No 75, 5-Amino-4-(3-chloro-phenyl)-2-((S)-5-oxo-pyrrolidin-2-ylmethoxy)-thieno[2,3-d]pyrimidine-6-carboxylic acid amide], the IC50 was 100 to 500 nM. As for `C=CCOc1nc(-c2cccc(Cl)c2)c2c(N)c(C(N)=O)sc2n1` [No 3, 2-Allyloxy-5-amino-4-(3-chloro-phenyl)-thieno[2,3-d]pyrimidine-6-carboxylic acid amide], the figure is under 100 nM.

On to `COc1nc(-c2ccc(C)o2)c2c(N)c(C(N)=O)sc2n1` [No 19, 5-Amino-2-methoxy-4-(5-methyl-furan-2-yl)-thieno[2,3-d]pyrimidine-6-carboxylic acid amide], for which the IC50 is under 100 nM. As for `COc1nc(-c2cccc(Cl)c2)c2c(N)c(C(N)=O)sc2n1` [No 6, 5-Amino-4-(3-chloro-phenyl)-2-methoxy-thieno[2,3-d]pyrimidine-6-carboxylic acid amide], the figure is under 100 nM.

`NC(=O)c1sc2nc(OCCCN3CCCC3=O)nc(-c3cccc(Cl)c3)c2c1N` [No 54, 5-Amino-4-(3-chloro-phenyl)-2-[3-(2-oxo-pyrrolidin-1-yl)-propoxy]-thieno[2,3-d]pyrimidine-6-carboxylic acid amide] came in with an IC50 of 100 to 500 nM. `Cc1cccc(-c2nc(OCc3ccc(OCCN4CCOCC4)cc3)nc3sc(C(N)=O)c(N)c23)n1` [No 35, 5-Amino-4-(6-methyl-pyridin-2-yl)-2-[4-(2-morpholin-4-yl-ethoxy)-benzyloxy]-thieno[2,3-d]pyrimidine-6-carboxylic acid amide] displayed a 50% inhibitory concentration (IC50) of 100 to 500 nM. As for `NC(=O)c1sc2nc(OC/C=C/CO)nc(-c3cccc(Cl)c3)c2c1N` [No 71, 5-Amino-4-(3-chloro-phenyl)-2-((E)-4-hydroxy-but-2-enyloxy)-thieno[2,3-d]pyrimidine-6-carboxylic acid amide], the figure is under 100 nM. `NC(=O)c1sc2nc(OCc3ccn(CCO)n3)nc(-c3cccc(Cl)c3)c2c1N` [No 74, 5-Amino-4-(3-chloro-phenyl)-2-[1-(2-hydroxy-ethyl)-1H-pyrazol-3-ylmethoxy]-thieno[2,3-d]pyrimidine-6-carboxylic acid amide] showed an IC50 of under 100 nM.

Compound `N#CCCOc1nc(-c2cccc(Cl)c2)c2c(N)c(C(N)=O)sc2n1` [No 72, 5-Amino-4-(3-chloro-phenyl)-2-(2-cyano-ethoxy)-thieno[2,3-d]pyrimidine-6-carboxylic acid amide] returned an IC50 of under 100 nM. Consider `NC(=O)c1sc2nc(OCC3CCCC3)nc(-c3cccc(C(F)(F)F)c3)c2c1N` [No 8, 5-Amino-2-cyclopentylmethoxy-4-(3-trifluoromethyl-phenyl)-thieno[2,3-d]pyrimidine-6-carboxylic acid amide], for which the IC50 was over 1000 nM. As for `CNC(=O)CCCOc1nc(-c2cccc(Cl)c2)c2c(N)c(C(N)=O)sc2n1` [No 70, 5-Amino-4-(3-chloro-phenyl)-2-(3-methylcarbamoyl-propoxy)-thieno[2,3-d]pyrimidine-6-carboxylic acid amide], the figure is 100 to 500 nM; as for `Cc1ccc(-c2nc(OCc3ccccn3)nc3sc(C(N)=O)c(N)c23)o1` [No 38, 5-Amino-4-(5-methyl-furan-2-yl)-2-(pyridin-2-ylmethoxy)-thieno[2,3-d]pyrimidine-6-carboxylic acid amide], 100 to 500 nM; as for `NC(=O)c1sc2nc(OCCC(O)CO)nc(-c3cccc(Cl)c3)c2c1N` (stereo not shown) [No 62, 5-Amino-4-(3-chloro-phenyl)-2-(3,4-dihydroxy-butoxy)-thieno[2,3-d]pyrimidine-6-carboxylic acid amide], under 100 nM. `Cc1cccc(-c2nc(OCc3cn(C)cn3)nc3sc(C(N)=O)c(N)c23)n1` [No 40, 5-Amino-2-(1-methyl-1H-imidazol-4-ylmethoxy)-4-(6-methyl-pyridin-2-yl)-thieno[2,3-d]pyrimidine-6-carboxylic acid amide] came in with an IC50 of under 100 nM. The same measure for `CC(C)(CO)COc1nc(-c2cccc(Cl)c2)c2c(N)c(C(N)=O)sc2n1` [No 68, 5-Amino-4-(3-chloro-phenyl)-2-(3-hydroxy-2,2-dimethyl-propoxy)-thieno[2,3-d]pyrimidine-6-carboxylic acid amide]: 100 to 500 nM; for `Cn1cc(COc2nc(-c3cccc(Cl)c3)c3c(N)c(C(N)=O)sc3n2)cn1` [No 44, 5-Amino-4-(3-chloro-phenyl)-2-(1-methyl-1H-pyrazol-4-ylmethoxy)-thieno[2,3-d]pyrimidine-6-carboxylic acid amide]: under 100 nM.

The term IC50 denotes the concentration needed to halve the response being measured. A low value points to higher potency.
